Consider five compounds from ChEMBL document CHEMBL1158746, “Structures and aldose reductase inhibitory effects of bromophenols from the red alga Symphyocladia latiuscula” (J Nat Prod, 2005).

Structures are written as SMILES.

A word on the IC50: it is the point on the concentration scale where inhibition reaches its midpoint.

For the test, the target named is Aldo-keto reductase family 1 member B1 (Homo sapiens, UniProt P15121). Description: Inhibition of human muscle recombinant aldose reductase by spectrophotometry. More on the design: species or system Muscle tissue.
Take `Oc1cc(Br)c(COCc2c(Br)c(O)c(O)c(Br)c2Br)c(Br)c1O`: the IC50 was 167 nM.

As to `Cc1c(Br)c(O)c(O)c(Br)c1Br`, the IC50 is 3190 nM.

For the compound `O=Cc1c(Br)c(O)c(O)c(Br)c1Br`, the IC50 is 667 nM.

As for `Oc1c(O)c(Br)c(Cc2c(Br)c(O)c(O)c(Br)c2Br)c(Br)c1Br`, the IC50 is 567 nM.

For the compound `Oc1c(Br)cc(Cc2c(Br)c(O)c(O)c(Br)c2Br)c(Br)c1O`, the IC50 was 638 nM.
